The source of these data is publication PMC3462168 (Analytical biochemistry, 2010).

Peptide text beside a SMILES is read from it. * marks the point of attachment. 5FAM = O=C1OC2(c3ccc(O)cc3Oc3cc(O)ccc32)c2ccc(C(=O)*)cc21

As a reminder, the EC50 is the midpoint of the concentration-response curve. Broadly, the inhibition is the change of the read-out against control, counted positive when it falls.

One assay concerns hRSV. The assay can be described thus: Antiviral activity of C20. The conditions noted are these: read-out: EC50, antiviral activity; methods only in supporting information. In kind it is cell-based.
In assay [1] the target is T1, hRSV F protein 5-Helix Bundle (5HB) (Human respiratory syncytial virus A, UniProt P03420). The assay is described as follows: Competitive FP binding assay. Further details: species or system hRSV strain A2. The conditions noted are these: for inhibition at 100 µM: read-out: % Inhibition (100 µM).
In assay [2] the test system is EBV gH/gL complex. The conditions noted are these: 5 nM Fl-C35, increasing amount of EBV gH/gL.
Assay [3] has as its target T1, hRSV F protein 5-Helix Bundle (5HB). The assay can be described thus: ELISA of Fl-C35 binding to 5HB. Further details: species or system hRSV strain A2. Particulars: data in supporting information. (An ELISA detects its analyte on a solid surface through an enzyme-linked reagent.)
In assay [4] the test system is EBV gH/gL complex. Particulars: read-out: IC50 of binding to EBV gH/gL protein; cited from earlier work.
The next assay relates to hRSV 5HB. The assay can be described thus: FP specificity cross-test: EBV gp42 FITC-30mer against hRSV 5HB. The format is binding, hRSV strain A2. The conditions noted are these: 5 nM FITC-30mer, wide range of 5HB concentrations.

Turning to `CC[C@H](C)[C@H](N)C(=O)N[C@@H](CO)C(=O)N[C@@H](CCC(N)=O)C(=O)N[C@H](C(=O)N[C@@H](CC(N)=O)C(=O)N[C@@H](CCC(=O)O)C(=O)N[C@@H](CCCCN)C(=O)N[C@H](C(=O)N[C@@H](CC(N)=O)C(=O)N[C@@H](CCC(N)=O)C(=O)N[C@@H](CO)C(=O)N[C@@H](CC(C)C)C(=O)N[C@@H](C)C(=O)N[C@@H](Cc1ccccc1)C(=O)N[C@H](C(=O)N[C@@H](CCCNC(=N)N)C(=O)N[C@@H](CCCCN)C(=O)N[C@@H](CO)C(=O)N[C@@H](CC(=O)O)C(=O)N[C@@H](CCC(=O)O)C(=O)O)[C@@H](C)CC)[C@@H](C)CC)C(C)C` [C20] (H-ISQVNEKINQSLAFIRKSDE-OH), in the assay on hRSV, the EC50 is more than 12.5 µM. The inhibition at 100 µM in assay [1] is more than 90%. Regarding `CC[C@H](C)[C@H](NC(=O)[C@H](Cc1ccccc1)NC(=O)[C@H](C)NC(=O)[C@H](CC(C)C)NC(=O)[C@H](CO)NC(=O)[C@H](CCC(N)=O)NC(=O)[C@H](CC(N)=O)NC(=O)[C@@H](NC(=O)[C@H](CCCCN)NC(=O)[C@H](CCC(=O)O)NC(=O)[C@H](CC(N)=O)NC(=O)[C@@H](NC(=O)[C@H](CCC(N)=O)NC(=O)[C@H](CO)NC(=O)[C@@H](NC(=O)[C@H](CO)NC(=O)[C@H](C)NC(=O)[C@H](CC(=O)O)NC(=O)[C@H](Cc1ccccc1)NC(=O)[C@H](CCC(=O)O)NC(=O)[C@H](CC(=O)O)NC(=O)[C@H](CO)NC(=O)[C@@H]1CCCN1C(=O)[C@H](Cc1ccccc1)NC(=O)[C@@H](N)C(C)C)[C@@H](C)CC)C(C)C)[C@@H](C)CC)C(=O)N[C@@H](CCCNC(=N)N)C(=O)N[C@@H](CCCCN)C(=O)N[C@@H](CO)C(=O)N[C@@H](CC(=O)O)C(=O)N[C@@H](CCC(=O)O)C(=O)O` [C30] (H-VFPSDEFDASISQVNEKINQSLAFIRKSDE-OH), the inhibition at 100 µM in assay [1] worked out at 100%.

Take `CC[C@H](C)[C@H](NC(=O)[C@H](Cc1ccccc1)NC(=O)[C@H](C)NC(=O)[C@H](CC(C)C)NC(=O)[C@H](CO)NC(=O)[C@H](CCC(N)=O)NC(=O)[C@H](CC(N)=O)NC(=O)[C@@H](NC(=O)[C@H](CCCCN)NC(=O)[C@H](CCC(=O)O)NC(=O)[C@H](CC(N)=O)NC(=O)[C@@H](NC(=O)[C@H](CCC(N)=O)NC(=O)[C@H](CO)NC(=O)[C@@H](NC(=O)[C@H](CO)NC(=O)[C@H](C)NC(=O)[C@H](CC(=O)O)NC(=O)[C@H](Cc1ccccc1)NC(=O)[C@H](CCC(=O)O)NC(=O)[C@H](CC(=O)O)NC(=O)[C@H](CO)NC(=O)[C@@H]1CCCN1C(=O)[C@H](Cc1ccccc1)NC(=O)[C@@H](NC(=O)[C@H](CC(C)C)NC(=O)[C@@H]1CCCN1C(=O)[C@H](CC(=O)O)NC(=O)[C@@H](N)Cc1ccc(O)cc1)C(C)C)[C@@H](C)CC)C(C)C)[C@@H](C)CC)C(=O)N[C@@H](CCCNC(=N)N)C(=O)N[C@@H](CCCCN)C(=O)N[C@@H](CO)C(=O)N[C@@H](CC(=O)O)C(=O)N[C@@H](CCC(=O)O)C(=O)N[C@@H](CC(C)C)C(=O)O` [C35] (H-YDPLVFPSDEFDASISQVNEKINQSLAFIRKSDEL-OH): in assay [1], the IC50 amounted to 0.0385 µM and the inhibition at 100 µM stood at 100%. Consider `CC[C@H](C)[C@H](NC(=O)[C@H](Cc1ccccc1)NC(=O)[C@H](C)NC(=O)[C@H](CC(C)C)NC(=O)[C@H](CO)NC(=O)[C@H](CCC(N)=O)NC(=O)[C@H](CC(N)=O)NC(=O)[C@@H](NC(=O)[C@H](CCCCN)NC(=O)[C@H](CCC(=O)O)NC(=O)[C@H](CC(N)=O)NC(=O)[C@@H](NC(=O)[C@H](CCC(N)=O)NC(=O)[C@H](CO)NC(=O)[C@@H](NC(=O)[C@H](CO)NC(=O)[C@H](C)NC(=O)[C@H](CC(=O)O)NC(=O)[C@H](Cc1ccccc1)NC(=O)[C@H](CCC(=O)O)NC(=O)[C@H](CC(=O)O)NC(=O)[C@H](CO)NC(=O)[C@@H]1CCCN1C(=O)[C@H](Cc1ccccc1)NC(=O)[C@@H](NC(=O)[C@H](CC(C)C)NC(=O)[C@@H]1CCCN1C(=O)[C@H](CC(=O)O)NC(=O)[C@H](Cc1ccc(O)cc1)NC(=O)c1ccc2c(c1)C(=O)OC21c2ccc(O)cc2Oc2cc(O)ccc21)C(C)C)[C@@H](C)CC)C(C)C)[C@@H](C)CC)C(=O)N[C@@H](CCCNC(=N)N)C(=O)N[C@@H](CCCCN)C(=O)N[C@@H](CO)C(=O)N[C@@H](CC(=O)O)C(=O)N[C@@H](CCC(=O)O)C(=O)N[C@@H](CC(C)C)C(=O)O` [Fl-C35] (5FAM-YDPLVFPSDEFDASISQVNEKINQSLAFIRKSDEL-OH), for which the “Binding of Fl-C35 to EBV gH/gL complex (negative control)” value in the assay with EBV gH/gL complex [2] was “no evidence of nonspecific binding”. In assay [3], the “Specific binding of Fl-C35 to 5HB in ELISA” value is recorded as “confirmed”. As to “KPNVEVWPVAAPPPVAEQEYGDKEVKLPHW [FITC-30mer]”, the IC50 in the assay with EBV gH/gL complex [4] is 0.0013 µM. For the same molecule, the “Binding of EBV gp42 FITC-30mer to hRSV 5HB (negative control)” value with hRSV 5HB is “no evidence of nonspecific binding”.
